These results are taken from patent US20240327787A1, “CULTURE MEDIUM, COATING MATRIX AND METHOD FOR EXPANDING MIDBRAIN DOPAMINERGIC PROGENITOR CELLS” (NUWACELL BIOTECHNOLOGIES CO., LTD., priority 2022, published 2024).

The test system of this assay is imDAPs. Description: imDAP maturation, cell morphology and adhesion (bright-field). In kind it is cell-based, human. The note with it: 10 μM Y27632; coating 1 μg/cm^2 for each; day 7. On the procedure:
were produced according to the method described in CN201910169525.0, and expanded as described in Example 10. The expanded […] were seeded on VTN-coated (1 μg/cm^2) plates at a density of 5×10^5 cells/cm^2 (Day 0), and cultured in the maturation medium ([…]) supplemented with 1 μM IWR1. MM-P used in Example 11 contained the following components: NeurobasalTM medium, 1% (v/v) Glutamax, 0.5 mM Db-cAMP sodium salt, 200 μM ascorbic acid, 20 ng/ml BDNF, 20 ng/ml GDNF, 1 ng/ml TGF-β3, 10 μM DAPT, hPLT (0.5%, 1%, 2%). MM-H used in Example 11 contained the following components: NeurobasalTM medium, 1% (v/v) Glutamax, 0.5 mM Db-cAMP sodium salt, 200 μM ascorbic acid, 20 ng/ml BDNF, 20 ng/ml GDNF, 1 ng/ml TGF-β3, […], HhPLT (0.5%, 1%, 2%). MM-B used in Example 11 contained the following components: Neurobasal, 1% (v/v) Glutamax, 0.5 mM Db-cAMP sodium salt, 200 μM ascorbic acid, 20 ng/ml BDNF, 20 ng/ml GDNF, 1 ng/ml TGF-β 3, 10 μM DAPT, 2% (v/v) B27 (50×) (as control). The above HhPLT was produced from hPLT as follows. The hPLT was centrifuged at 3000 g for 30 min at 4° C. to obtain the supernatant, which was heated to 56° C. for 30 min. […] Cells were collected and counted by Vi-cell cytometer. The cells were analyzed by RT-qPCR for EN1, LMX1A, FOXA2, NURR1, SOX6 and TH gene expression. […]

Each structure is given as a SMILES string. Structures can show the parent of a compound that is named as a salt.

Consider `C[C@@H](N)[C@H]1CC[C@H](C(=O)Nc2ccncc2)CC1` [Y27632, (R)-(+)-trans-4-(1-aminoethyl)-N-(4-pyridyl) cyclohexanecarboxamide dihydrochloride], for which the “cell adhesion and growth in maturation media supplemented with Y27632 (FIG. 8A)” value is “could promote cell adhesion at a certain degree”.
